This series is described as follows: Solubility of polymerizable fluorine-containing sulfonic acid onium salts in PGMEA. The following applies: amount (g) of polymerizable monomer dissolved in 100 g of PGMEA.
On to `C=C(COCC(F)(F)S(=O)(=O)O)C(=O)OC1CCOC1=O` (stereo not shown) [PAG-1, Triphenylsulfonium 2-[2-(2-oxotetrahydrofuran-3-yloxycarbonyl)-2-methyleneethoxy]-1,1-difluoroethanesulfonate], for which the Solubility came out at 38 g/100 g.

As for `C=C(COCCC(F)(F)C(F)(F)S(=O)(=O)[O-])C(=O)OC1CC2CC1CC2CC(OC(C)=O)(C(F)(F)F)C(F)(F)F.c1ccc(-[s+]2c3ccccc3c3ccccc32)cc1` (stereo not shown) [PAG-2, Phenyldibenzothiophenium 4-[2-(3,3,3-trifluoro-2-acetyloxy-2-(trifluoromethyl)propyl)bicyclo[2.2.1]hepta-2-yloxycarbonyl-2-methyleneethoxy]-1,1,2,2-tetrafluorobutanesulfonate], the Solubility came out at 50 g/100 g.

`C=C(COCC(F)(F)S(=O)(=O)O)C(=O)OC1CC(C(O)(C(F)(F)F)C(F)(F)F)CC(C(O)(C(F)(F)F)C(F)(F)F)C1` (stereo not shown) [PAG-3, Diphenyl-p-tolylsulfonium 2-[2-(3,5-bis(hexafluoro-2-hydroxypropan-2-yl)cyclohexyloxycarbonyl)-2-methyleneethoxy]-1,1-difluoroethanesulfonate]: the Solubility is on record as 55 g/100 g.

Consider `C=C(COCCC(F)(F)C(F)(F)S(=O)(=O)O)C(=O)Oc1ccc2sc(=O)oc2c1` [PAG-8], for which the Solubility came out at 42 g/100 g.

As for `C=C(COC(CCCC)C(F)(F)S(=O)(=O)[O-])C(=O)Oc1ccc(C(O)(C(F)(F)F)C(F)(F)F)cc1.Cc1ccc([S+](c2ccc(C)cc2)c2ccc(C)cc2)cc1` (stereo not shown) [PAG-11, Tri-p-tolylsulfonium 2-[4-(2,2,2-trifluoro-1-hydroxy-1-(trifluoromethyl)ethylphenoxycarbonyl)-2-methylene-ethoxy]-1,1-difluorohexanesulfonate], the Solubility is on record as 45 g/100 g.

As for `C=C(COCCCC(F)(F)S(=O)(=O)O)C(=O)OC1CC2CC1C1COC(=O)C21` (stereo not shown) [PAG-15, [(4-trifluoromethyl)phenyl]diphenylsulfonium 4-(4-oxa-tricyclo[5.2.1.0(2,6)]decan-3-on-8-yloxycarbonyl-2-methylene-ethoxy)-1,1-difluorobutanesulfonate], the Solubility amounted to 42 g/100 g.

In the case of “Triphenylsulfonium 2-[2-(1,1,1-trifluoro-2-hydroxy-2-(trifluoromethyl)penta-5-yloxycarbonyl)-2-methyleneethoxy]-1,1-difluoroethanesulfonate [PAG-13]”, the Solubility worked out at 47 g/100 g.
